“Also recorded” adds a separate entry of the source. Read-outs that look alike come from different tables or passages of the source.
How the values were obtained:
[1] = system: NIH 3T3 cells; test: Activation of resting serum-starved NIH 3T3 cells ([3H]thymidine incorporation); type: cell-based; conditions: for time from the start of activation to entry of the S phase: 5% fetal calf serum; for activation of growth arrested cells (thymidine incorporation over 24 hours): cells deprived of serum for 3 or 4 days; for concentrations that activate resting 3T3 cells (dose-response): four day serum-starved cells, FIG. 6B; for entry of treated cells into the S phase: data not shown
Procedure: FIGS. 6A and 6B show the activation of resting NIH 3T3 cells. In FIG. 6(a), one to four day serum-starved cells activated by serum, retinol, 14-HRR, and the peptide growth factors epidermal growth factor ("EGF") and platelet derived growth factor ("PDGF") are shown. […] NIH 3T3 cells were grown to confluence in Dulbecco's minimal essential medium ("DMEM") containing 10% fetal calf serum in 96-well microliter plates. All media were supplemented with 2 mM glutamine and 100 U/ml of penicillin/streptomycin. Cells were washed once with phosphate-buffered saline solution and incubated for one to four days in 200 μl/well of DMEM media/0.1% fetal calf serum ("starvation media"). On the indicated day, starvation media was replaced with 200 μl/well of insulin, transferrin, linoleic acid, bovine serum albumin ("ITLB") media, with or without fetal calf serum, retinoids, or peptide growth factors at the indicated concentrations. ITLB media is RPMI media (Gibco BRL, Grand Island, N.Y.) containing […] bovine serum albumin (1.2 mg/ml), linoleic acid (10^-6 M), bovine insulin (5 μg/ml), and transferrin (5 μg/ml). [^3 H]thymidine (1.2 μCi per well) was added at the beginning of the experiment, and the thymidine incorporation was determined after 24 h. The data represent the mean of triplicate measurements and standard deviations ("SD") were ≤17%. Recombinant PDGF (B/B) and EGF were purchased from Sigma Chemical Company or Boehringer Mannheim Corporation. Anhydroretinol was synthesized by acid catalyzed dehydration of all-trans-retinol. Embree, J. Biol. Chem. 128:187-98 (1939) and Derguini, et al., Angew. Chem. Int. Ed. Engl. 33:1839-41 (1994), which are hereby incorporated by reference. All-trans-14-hydroxy-4,14-retro-retinol was synthesized as described. Derguini, et al., J. Biochem. 33:623-28 (1994), which is hereby incorporated by reference.
Cells starved for 4 days in DMEM/0.1% fetal calf serum were activated with 5% fetal calf serum, 2 μM retinol, or 2 μM 14-HRR, and the cumulative thymidine incorporation was determined at the indicated time points. Δcpm corresponds to the increase in [^3 H]thymidine incorporation in the two hour period before the time point shown. This method is described in FIG. 6. The data in FIG. 7 represents the mean of quadruplicate measurements and SDs were ≤15%.
Cells starved for 4 days in DMEM/0.1% fetal calf serum were activated in 100 μl/well ITLB medium. At the indicated time points, anhydroretinol was added in 100 μl ITLB medium. This method is described in FIG. 6. The data in FIG. 8 represents the mean of quadruplicate measurements and SDs were ≤20%.
Cells starved for 4 days in DMEM/0.1% fetal calf serum were activated with 5% fetal calf serum, 2 μM retinol, or 2 μM 14-HRR. At the time points, 10^-5 M anhydroretinol was added. The cumulative [^3 H]thymidine incorporation was determined after 24 hours. […] The method is described in FIG. 6. The data in FIG. 9 represents the mean of triplicate measurements and SDs were ≤20%.
Confluent NIH 3T3 cells were starved for 1 to 4 days in medium containing 0.1% serum. Then, these starved cells were treated with serum, PDGF, EGF, retinol, or 14-HRR. Activation was quantitated by measuring the [^3 H] thymidine incorporated into newly synthesized DNA during the subsequent 24 hours (FIG. 6A). After a single day of serum starvation, the cells were not yet arrested, and the control cells incorporated the same amount of thymidine as the treated cells. After 2 days of serum deprivation, untreated cells incorporated slightly less thymidine, while cells treated with serum, peptide growth factors and retinoids maintained the original level of thymidine incorporation. In contrast, cells deprived of serum for 3 or 4 days were fully growth arrested; untreated cells incorporated little or no thymidine. […] All subsequent activation experiments were conducted using 4 day starved NIH 3T3 cells.

[2] = target: T1, retinol dehydratase (Spodoptera frugiperda, UniProt Q26490); test: Retinol dehydratase assay ([3H]-retinol to [3H]-AR, HPLC radiomatic detection); kinetic studies; type: biochemical
T1 sequence (Q26490 1-351): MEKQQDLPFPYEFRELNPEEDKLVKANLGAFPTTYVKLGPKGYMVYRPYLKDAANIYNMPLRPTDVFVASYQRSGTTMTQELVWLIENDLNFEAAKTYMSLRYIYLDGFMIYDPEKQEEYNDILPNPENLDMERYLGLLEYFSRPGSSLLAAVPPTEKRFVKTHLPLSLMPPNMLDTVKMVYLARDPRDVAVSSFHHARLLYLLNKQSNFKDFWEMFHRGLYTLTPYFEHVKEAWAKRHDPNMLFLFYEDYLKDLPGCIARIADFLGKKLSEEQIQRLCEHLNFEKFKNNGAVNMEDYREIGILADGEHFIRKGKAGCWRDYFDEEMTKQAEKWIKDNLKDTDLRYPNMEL
Procedure: 20-50 μl aliquots of supernatant/column fractions were incubated with 1 μCi of [^3 H]-retinol and 20 μl of high speed supernatant from sonicated Sf-9 cells in 200 μl assay buffer (20 mM Tris.Cl pH 7.5, 150 mM NaCl, I mM MgCI2) for 15-60 minutes at 24° C. […] Samples were delipidated and [^3 H]-AR production quantified by a liquid scintillation radiomatic detector in series with HPLC gradient elution (20 mM Tris pH 7.4/methanol/chloroform) from a C-18 Reverse Phase 201TP54 column (Vydac, Separations Group, Hesperia, Calif.) as described by McClean et al., Clin. Chem., 28:693-96 (1982) and Derguini et al., Angew. Che. Int. Ed. Engl., 33:1839-41 (1994), which are hereby incorporated by reference.
Kinetic studies were performed with native retinol dehydratase (0.1 μg/assay) and ^3 H-retinol in the presence of constant substrate carrier protein concentrations, either delipidated BSA or recombinant cellular retinol binding protein ("CRBP"). The initial rate of AR synthesis at different substrate concentrations was determined by radiomatic detection of ^3 H-AR after HPLC separation.
Carrier protein for retinol (delipidated bovine serum albumin or recombinant human CRBP) was added to reduce nonspecific binding and micelle formation.

[3] = system: B lymphocyte; conditions: Buck et al. 1993; cited from earlier work
[4] = system: resting T lymphocytes; conditions: Buck et al. 1993; cited from earlier work
[5] = system: lymphocyte and HL-60 cell; conditions: Eppinger et al. 1993, Buck et al. 1993; cited from earlier work
[6] = system: Sf-21 cells; type: cell-based, Spodoptera frugiperda
Procedure: 10^7 Spodoplera frugiperda Sf-21 cells or Sf-9 cells were incubated with 1 μCi^3 H-retinol in Grace's insect cell media for 6 hours. Delipidated and radiolabelled retinoid metabolites were analyzed by radiomatic detection after separation by HPLC.
Che. Int. Ed. Engl., 33:1839-41 (1994), which is hereby incorporated by reference.

[7] = target: T1, retinol dehydratase; test: Fluorimetric titration of recombinant retinol dehydratase with retinol (direct binding, no cofactor)
Procedure: Binding was monitored by following the fluorescence enhancement of retinol (excitation--330 nm; emission--480 nm, open circles). The fluorescence contribution of free retinol was determined by titration with retinol in the absence of protein (open squares), analyzed by linear regression analysis (dashed line) and subtracted from the titration data to give the corrected titration binding curve (closed circles). The data were fitted (solid line) using an equation derived from simple binding theory.
Retinol is an efficient fluorophore and its interactions with proteins are often accompanied by a marked increase in its fluorescence. […]
Recombinant retinol dehydratase (lμM) was titrated with retinol from a concentrated solution in ethanol (final ethanol concentration <2.0%). Binding was monitored by following the fluorescence enhancement of retinol (excitation--330 nm; emission--480 nm, open circles). The fluorescence contribution of free retinol was determined by titration with retinol in the absence of protein (FIG. 5B, open squares), analysed by linear regression analysis (FIG. 5B, dashed line) and subtracted from the titration data to give the corrected titration binding curve (FIG. 5B, closed circles). […]

[8] = target: BSA (Bos taurus, UniProt P02769); conditions: published value; read-out: BSA Kd for retinol; cited from earlier work
[9] = target: T2, CRBP-1 (Rattus norvegicus, UniProt P02696); conditions: published value; read-out: CRBP Kd for retinol; cited from earlier work
T2 sequence (P02696 1-135): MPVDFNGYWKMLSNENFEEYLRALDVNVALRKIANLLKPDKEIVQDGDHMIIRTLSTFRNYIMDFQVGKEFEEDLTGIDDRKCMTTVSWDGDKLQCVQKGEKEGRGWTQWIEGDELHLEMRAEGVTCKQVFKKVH

[10] = 4 day starved cells, 2 μM retinol or 2 μM 14-HRR

Sequence of BSA (P02769 25-607): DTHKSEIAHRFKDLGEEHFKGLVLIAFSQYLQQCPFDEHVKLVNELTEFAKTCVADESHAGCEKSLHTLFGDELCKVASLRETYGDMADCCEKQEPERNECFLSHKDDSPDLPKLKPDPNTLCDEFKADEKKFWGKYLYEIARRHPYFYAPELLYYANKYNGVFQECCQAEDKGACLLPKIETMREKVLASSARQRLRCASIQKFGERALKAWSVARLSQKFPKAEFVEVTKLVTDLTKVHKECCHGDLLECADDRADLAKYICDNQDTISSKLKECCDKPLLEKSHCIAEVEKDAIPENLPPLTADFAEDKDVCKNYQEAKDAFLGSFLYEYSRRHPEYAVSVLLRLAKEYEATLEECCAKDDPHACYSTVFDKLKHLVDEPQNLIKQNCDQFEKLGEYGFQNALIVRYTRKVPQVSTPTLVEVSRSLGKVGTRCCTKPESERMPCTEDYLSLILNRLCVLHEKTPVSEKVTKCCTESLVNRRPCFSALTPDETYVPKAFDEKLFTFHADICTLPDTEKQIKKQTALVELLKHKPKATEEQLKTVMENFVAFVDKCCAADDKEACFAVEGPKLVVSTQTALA

CC1=CCCC(C)(C)C1=C/C=C(C)/C=C/C=C(\C)C(O)CO (stereo not shown) [14-HRR, 14-hydroxy-4,14-retro-retinol]
time from the start of activation to entry of the S phase [1, 10]: 16 h
activation of growth arrested cells (thymidine incorporation over 24 hours) [1]: activated the cells at least as well as serum
concentrations that activate resting 3T3 cells (dose-response) [1]: submicromolar

Nc1ncnc2c1ncn2[C@@H]1O[C@H](COP(=O)(O)OS(=O)(=O)O)[C@@H](OP(=O)(O)O)[C@H]1O [PAPS, 3'-phosphoadenosine 5'-phosphosulfate]
restoration of retinol dehydratase activity (cofactor) ([2]; purified recombinant retinol dehydratase, [3H]-retinol assay): necessary and sufficient to restore activity

Nc1ncnc2c1ncn2[C@@H]1O[C@H](COP(=O)(O)OS(=O)(=O)O)[C@@H](O)[C@H]1O [adenosine 5'-phosphosulfate]
activity as cofactor in the [3H]-retinol assay ([2]; purified recombinant retinol dehydratase, concentration range tested 1-10 μM): not active

C=C/C(C)=C/C=C/C(C)=C/C=C1/C(C)=CCCC1(C)C [anhydroretinol]
reaction rate (product inhibition) ([2]; ratio of 50:1 for anhydroretinol to retinol): halved
inhibition of activation by retinol and 14-HRR ([1]; 3T3 cells): competitively inhibits
time after activation within which added anhydroretinol prevents activation ([1]; 10^-5 M anhydroretinol, activation by 5% fetal calf serum, 2 μM retinol or 2 μM 14-HRR): ≤ 90 min
inhibition of activation by serum ([1]; 4 day starved cells, FIG. 8): blocks activation by serum in a dose-dependent manner; also recorded: competitively inhibits
block of activation when added late ([1]; anhydroretinol added after 2 hours): unable to block activation
effect on B lymphocyte proliferation [3]: blocks
effect on activation of resting T lymphocytes [4]: blocks
effect on retinol and 14-HRR supported lymphocyte and HL-60 cell growth [5]: competitively inhibits

O=CCCCC=O [glutaraldehyde]
inhibition of cellular production of AR compared to controls ([6]; 2% glutaraldehyde fixation): 90%

CCCCCCCCCCCCCC(=O)O[C@@H]1[C@@H](C)[C@@]2(O)[C@@H](C=C(CO)C[C@]3(O)C(=O)C(C)=C[C@@H]23)[C@@H]2C(C)(C)[C@]12OC(C)=O [phorbol ester]
entry of treated cells into the S phase [1]: did not enter the S phase
activation of resting cells ([1]; ≤1 μM): unable to activate

CC1=C(/C=C/C(C)=C/C=C/C(C)=C/C(=O)O)C(C)(C)CCC1 [retinoic acid]
activation of resting cells ([1]; ≤5 μM): unable to activate

CC1=C(/C=C/C(C)=C/C=C/C(C)=C/CO)C(C)(C)CCC1 [retinol]
Vmax ([2]; all assays, with carrier protein, n=5): 490±50 pmoles AR min^-1 enzyme
Vmax ([2]; native retinol dehydratase 0.1 μg/assay, 3H-retinol, representative experiment, non-linear regression): 530 pmol/mg/min
Kd ([7]; n=3, read-out: range of equilibrium dissociation constant (Kd)): 0.002 to 0.015 µM
Kd ([7]; recombinant enzyme 0.5-1 μM, no cofactor, to be considered an upper limit, read-out: equilibrium dissociation constant (Kd)): 0.009 µM
time from the start of activation to entry of the S phase [1, 10]: 16 h
activation of growth arrested cells (thymidine incorporation over 24 hours) [1]: activated the cells at least as well as serum
concentrations that activate resting 3T3 cells (dose-response) [1]: submicromolar
Kd [8]: 1 µM
Kd [9]: 0.012 µM

[N-]=[N+]=[N-] [sodium azide]
inhibition of cellular production of AR compared to controls ([6]; 0.1% sodium azide treatment): 96%

Insulin: bovine insulin, 5 μg/ml in ITLB medium
activation of resting 3T3 cells ([1]; insulin 5 μg/ml in the defined medium, alone): did not activate

PDGF
activation of growth arrested cells (thymidine incorporation over 24 hours) [1]: had no effect
entry of treated cells into the S phase [1]: did not enter the S phase
activation of resting cells ([1]; ≤1000 ng/ml): unable to activate

— patent publication US5928931A, “Isolation, purification and cloning of retinol dehydratase” (Cornell Research Foundation, Inc., priority 1997, dated 1999)
